Experimental data published in patent US6410054B1, “Immediate release eplerenone compositions” (G. D. Searle & Co., priority 1998, dated 2002).

Tests used:
[1] = Single dose study: urinary excretion of eplerenone and open lactone ring form; assay type: in vivo, humans
Experimental: The study employed seven parallel dose groups of eight healthy male humans.
The plasma samples collected from subjects dosed with eplerenone were assayed for concentrations of eplerenone and the open lactone ring form of eplerenone. […] A subset of plasma samples was also assayed for testosterone levels. The urine collected was analyzed to determine concentrations and amounts of eplerenone and the open lactone ring form of eplerenone, the amount of sodium and potassium excreted, and the urinary log10 (sodium/potassium) ratio.

[2] = Single dose study: safety; assay type: in vivo; settings: single 10-1000 mg oral doses, healthy male humans
Experimental: Antialdosterone activity was determined based on urine levels of sodium and potassium following repeated administration of fludrocortisone. Safety was determined on the basis of laboratory tests, vital signs, and the occurrence and types of adverse events.

[3] = Effect of food study: safety and tolerability; assay type: in vivo, humans; settings: single 100 mg dose, fasted or fed
Experimental: An open-label randomized, cross-over study was employed to evaluate the pharmacokinetic profiles of eplerenone under fasted and fed conditions, and the safety and tolerability of eplerenone. Safety was assessed based on adverse events, vital signs and clinical laboratory tests. Twelve healthy male subjects were randomized to receive a single 100 mg dose of eplerenone on days 1 and 8 under (i) fasted conditions, or (ii) immediately following a high-fat breakfast. The subjects were orally administered (dosed) a single 100 mg dose of eplerenone in the form of the capsule described in Example 7, together with approximately 200 to 240 mL of water at 0800 hours on days 1 and 8. Subjects randomized to receive a high-fat breakfast were to completely ingest the meal within 20 minutes prior to dosing. The high-fat meal contained approximately 33 g protein, 75 g fat, 58 g carbohydrates and 1000 calories. […] All adverse events were mild in severity.

[4] = parameters: species or system beagle dogs; settings: female, beagle, dog, in vivo
Experimental: The effect of the particle size of the eplerenone starting material used in the pharmaceutical composition on eplerenone plasma concentrations and relative bioavailability was studied in a dog model. Four healthy female beagle dogs weighing between 8 to 12 kg were intragastrically administered one immediate release (IR) capsule containing the formulation described in Table 30A below followed by about 10 mL of water.
The dogs were fasted for 15 to 20 hours prior to administration of the capsule and were not fed again until at least 4 hours after dose administration. Blood samples (approximately 3 mL) were collected by venipuncture in chilled tubes containing heparin at 0, 0.5, 1, 2, 3, 4, 6, 8 and 24 hours after dose administration. The blood samples were immediately placed on ice. Separation of plasma from the blood samples was complete after about 15 minutes of centrifugation. The resulting plasma samples were frozen at about −20° C. and stored until analyzed. Analysis was performed using an LC/MS/MS procedure.
This study was conducted using the same four dogs for three formulations that were identical except for the particle size of the eplerenone starting material. […]

COC(=O)C1CC2=CC(=O)CCC2(C)C23OC2CC2(C)C(CC[C@@]24CCC(=O)O4)C13 (stereo partly drawn) [eplerenone, methyl hydrogen 9,11α-epoxy-17α-hydroxy-3-oxopregn-4-ene-7α,21-dicarboxylate, γ-lactone]
Amount of Eplerenone Excreted in Urine ([1]; 100 mg dose, 12 to 14 hours): (26.6) mcg
Concentration of Eplerenone Excreted in Urine ([1]; 100 mg dose, 12 to 14 hours): 0.1103 µg/mL
Amount of Eplerenone Excreted in Urine ([1]; 100 mg dose, 14 to 16 hours): (6.6) mcg
Concentration of Eplerenone Excreted in Urine ([1]; 100 mg dose, 14 to 16 hours): 0.0365 µg/mL
Amount of Eplerenone Excreted in Urine ([1]; 100 mg dose, 16 to 24 hours): (2.7) mcg
Concentration of Eplerenone Excreted in Urine ([1]; 100 mg dose, 16 to 24 hours): 0.0071 µg/mL
Amount of Eplerenone Excreted in Urine ([1]; 100 mg dose, −9 to 0 hours): (0) mcg
Concentration of Eplerenone Excreted in Urine ([1]; 100 mg dose, −9 to 0 hours): 0 µg/mL
Amount of Eplerenone Excreted in Urine ([1]; 300 mg dose, 0 to 2 hours): (677.7) mcg
Concentration of Eplerenone Excreted in Urine ([1]; 300 mg dose, 0 to 2 hours): 9.3701 µg/mL
Amount of Eplerenone Excreted in Urine ([1]; 300 mg dose, 0 to 24 hours): (2872.3) mcg
Amount of Eplerenone Excreted in Urine ([1]; 300 mg dose, 2 to 4 hours): (873.7) mcg
Concentration of Eplerenone Excreted in Urine ([1]; 300 mg dose, 2 to 4 hours): 6.4659 µg/mL
Amount of Eplerenone Excreted in Urine ([1]; 300 mg dose, 4 to 6 hours): (672.6) mcg
Concentration of Eplerenone Excreted in Urine ([1]; 300 mg dose, 4 to 6 hours): 3.8652 µg/mL
Amount of Eplerenone Excreted in Urine ([1]; 300 mg dose, 6 to 8 hours): (337.0) mcg
Concentration of Eplerenone Excreted in Urine ([1]; 300 mg dose, 6 to 8 hours): 2.2378 µg/mL
Amount of Eplerenone Excreted in Urine ([1]; 300 mg dose, 8 to 10 hours): (307.9) mcg
Concentration of Eplerenone Excreted in Urine ([1]; 300 mg dose, 8 to 10 hours): 1.2086 µg/mL
Amount of Eplerenone Excreted in Urine ([1]; 300 mg dose, 10 to 12 hours): (162.4) mcg
Concentration of Eplerenone Excreted in Urine ([1]; 300 mg dose, 10 to 12 hours): 0.5424 µg/mL
Amount of Eplerenone Excreted in Urine ([1]; 300 mg dose, 12 to 14 hours): (97.4) mcg
Concentration of Eplerenone Excreted in Urine ([1]; 300 mg dose, 12 to 14 hours): 0.4196 µg/mL
Amount of Eplerenone Excreted in Urine ([1]; 300 mg dose, 14 to 16 hours): (52.2) mcg
Concentration of Eplerenone Excreted in Urine ([1]; 300 mg dose, 14 to 16 hours): 0.2926 µg/mL
Amount of Eplerenone Excreted in Urine ([1]; 300 mg dose, 16 to 24 hours): (50.4) mcg
Concentration of Eplerenone Excreted in Urine ([1]; 300 mg dose, 16 to 24 hours): 0.1264 µg/mL
Amount of Eplerenone Excreted in Urine ([1]; 300 mg dose, −9 to 0 hours): (0) mcg
Concentration of Eplerenone Excreted in Urine ([1]; 300 mg dose, −9 to 0 hours): 0 µg/mL
Amount of Eplerenone Excreted in Urine ([1]; 1000 mg dose, 0 to 2 hours): (1482.0) mcg
Concentration of Eplerenone Excreted in Urine ([1]; 1000 mg dose, 0 to 2 hours): 17.8586 µg/mL
Amount of Eplerenone Excreted in Urine ([1]; 1000 mg dose, 0 to 24 hours): (17246.6) mcg
Amount of Eplerenone Excreted in Urine ([1]; 1000 mg dose, 2 to 4 hours): (5983.3) mcg
Concentration of Eplerenone Excreted in Urine ([1]; 1000 mg dose, 2 to 4 hours): 24.4603 µg/mL
Amount of Eplerenone Excreted in Urine ([1]; 1000 mg dose, 4 to 6 hours): (4041.5) mcg
Concentration of Eplerenone Excreted in Urine ([1]; 1000 mg dose, 4 to 6 hours): 13.8997 µg/mL
Amount of Eplerenone Excreted in Urine ([1]; 1000 mg dose, 6 to 8 hours): (2083.0) mcg
Concentration of Eplerenone Excreted in Urine ([1]; 1000 mg dose, 6 to 8 hours): 8.7821 µg/mL
Amount of Eplerenone Excreted in Urine ([1]; 1000 mg dose, 8 to 10 hours): (1853.9) mcg
Concentration of Eplerenone Excreted in Urine ([1]; 1000 mg dose, 8 to 10 hours): 4.491 µg/mL
Amount of Eplerenone Excreted in Urine ([1]; 1000 mg dose, 10 to 12 hours): (1177.2) mcg
Concentration of Eplerenone Excreted in Urine ([1]; 1000 mg dose, 10 to 12 hours): 2.3611 µg/mL
Amount of Eplerenone Excreted in Urine ([1]; 1000 mg dose, 12 to 14 hours): (892.8) mcg
Concentration of Eplerenone Excreted in Urine ([1]; 1000 mg dose, 12 to 14 hours): 3.1837 µg/mL
Amount of Eplerenone Excreted in Urine ([1]; 1000 mg dose, 14 to 16 hours): (340.5) mcg
Concentration of Eplerenone Excreted in Urine ([1]; 1000 mg dose, 14 to 16 hours): 1.4052 µg/mL
Amount of Eplerenone Excreted in Urine ([1]; 1000 mg dose, 16 to 24 hours): (366.0) mcg
Concentration of Eplerenone Excreted in Urine ([1]; 1000 mg dose, 16 to 24 hours): 0.658 µg/mL
Amount of Eplerenone Excreted in Urine ([1]; 1000 mg dose, −9 to 0 hours): (0) mcg
Concentration of Eplerenone Excreted in Urine ([1]; 1000 mg dose, −9 to 0 hours): 0 µg/mL
changes in physical examinations, vital signs or clinical laboratory results [2]: no clinically significant changes
severity of adverse events [2]: mild
changes in vital signs or physical examinations [3]: no clinically significant changes
severity of adverse events [3]: mild
increase of relative bioavailability [4]: ~100%
